1 substance from US12653899B2, “Multi-targeted, tunable, sustained delivery of payloads to charged avascular tissues” (Massachusetts Institute of Technology, priority 2019, dated 2026) can be followed below.

The subject of assay [1] is human ankle cartilage explants treated with IL-1β. In words: IL-1β cytokine challenge model, sGAG biosynthesis rate in human ankle cartilage explants. The format is cell-based. Particulars: continuous 39.2 nM IGF-1; 10 ng/ml mouse IL-1β; FIG. 20.
Assay [2] concerns human ankle cartilage explants. In words: Cumulative sGAG loss and final explant sGAG content (DMMB), human ankle cartilage dose response. To be noted: continuous free IGF-1; any of the three time points. The class given is cell-based. Here is the method:
Since each fusion protein had one IGF-1 domain, equivalent doses (39.2 nM) of these were tested. In addition to this, 500 nM, 1 μM and 2 μM doses of fusion proteins were also tested. In all cases, only a single dose of the fusion proteins was added at the start of the experiment, and media changes were carried out without fusion proteins once every 2 to 3 days thereafter. In contrast, continuous doses of free IGF-1 were used for the positive control. An untreated control group was also included in the experiments. Experiments were terminated at 3-day, 7-day and 15-day time points. Outcome measures included the biosynthesis rate of sulfated glycosaminoglycans (sGAG), explant metabolic rate, sGAG loss to the culture medium and the explant sGAG content at the end of the experiment.
The metabolic rate of cartilage explants was measured using the Alamar Blue assay (ThermoFisher). […] At the end of the incubation period, the absorbance of the medium at 570 nm and 600 nm was measured using a microplate reader (Synergy H1 Hybrid Multi-Mode Microplate Reader, BioTek). These readings were used to calculate the percentage reduction of Alamar Blue, which is directly proportional to the explant metabolic rate. […] Following this, the weight-normalized readings for the treatment groups were normalized by the weight-normalized mean value for the untreated controls. […]

“Also recorded” adds a separate entry of the source.

Take “IGF-1: free recombinant human IGF-1 (PeproTech), pro-anabolic growth factor used as the positive control”: the “rescue of the biosynthesis loss caused by IL-1” value in assay [1] is given as “rescued; also recorded: could rescue”. Further, the “final explant GAG content or cumulative GAG loss percent compared to the untreated control” value in assay [2] is recorded as “did not have any change”.
